Measured values from US9884843B2 (Peloton Therapeutics, Inc., priority 2013, dated 2018).
Where two headings read alike, the source gives them in different places.

Molecular target: HIF-2α HIS TAG-PASB Domain (Homo sapiens, UniProt Q99814)
Assay: biochemical
Assay type: binding
Source text: The term “scintillation proximity assay” (SPA) refers to a homogenous assay in which light is emitted when a radiolabeled ligand is brought into close proximity to a radiosensitive bead. The assay typically contains a target protein that contains a tag (e.g., His Tag, Glutathione S-transferase Tag). The tag on the protein is used to bind the target protein to the scintillation bead. Radiolabeled ligand (e.g., labeled with tritium) that binds to the protein is now in close proximity to the bead, and when the raidolabel (e.g., tritium) decays, the high energy particle hits the bead resulting in the emission of light that is detected by a detector, such as photomultiplier tube or CCD camera. When unlabeled ligands or compounds that bind to the protein are used in the assay, they displace the radiolabeled ligand, resulting in loss of signal.
The total assay volume was about 100 μL in the following configuration: 2-μL compound in DMSO, 88 μL buffer with protein and probe and 10 μL of SPA beads. […] To each compound, 88 μL of the buffer solution was then added. […] The percent inhibition was determined and IC50 values were calculated using the Dotmatics system based on the following equation: % inhibition=[(high control−sample)/(high control−low control)]×100.

[1] = unnumbered compounds listed by structure and name, read-out: IC50 value in SPA
[2] = displacement of Compound 120 probe, mean, read-out: Mean SPA IC50

HIF-2α HIS TAG-PASB Domain, sequence (Q99814 whole entry, looked up, the tested form may be a part): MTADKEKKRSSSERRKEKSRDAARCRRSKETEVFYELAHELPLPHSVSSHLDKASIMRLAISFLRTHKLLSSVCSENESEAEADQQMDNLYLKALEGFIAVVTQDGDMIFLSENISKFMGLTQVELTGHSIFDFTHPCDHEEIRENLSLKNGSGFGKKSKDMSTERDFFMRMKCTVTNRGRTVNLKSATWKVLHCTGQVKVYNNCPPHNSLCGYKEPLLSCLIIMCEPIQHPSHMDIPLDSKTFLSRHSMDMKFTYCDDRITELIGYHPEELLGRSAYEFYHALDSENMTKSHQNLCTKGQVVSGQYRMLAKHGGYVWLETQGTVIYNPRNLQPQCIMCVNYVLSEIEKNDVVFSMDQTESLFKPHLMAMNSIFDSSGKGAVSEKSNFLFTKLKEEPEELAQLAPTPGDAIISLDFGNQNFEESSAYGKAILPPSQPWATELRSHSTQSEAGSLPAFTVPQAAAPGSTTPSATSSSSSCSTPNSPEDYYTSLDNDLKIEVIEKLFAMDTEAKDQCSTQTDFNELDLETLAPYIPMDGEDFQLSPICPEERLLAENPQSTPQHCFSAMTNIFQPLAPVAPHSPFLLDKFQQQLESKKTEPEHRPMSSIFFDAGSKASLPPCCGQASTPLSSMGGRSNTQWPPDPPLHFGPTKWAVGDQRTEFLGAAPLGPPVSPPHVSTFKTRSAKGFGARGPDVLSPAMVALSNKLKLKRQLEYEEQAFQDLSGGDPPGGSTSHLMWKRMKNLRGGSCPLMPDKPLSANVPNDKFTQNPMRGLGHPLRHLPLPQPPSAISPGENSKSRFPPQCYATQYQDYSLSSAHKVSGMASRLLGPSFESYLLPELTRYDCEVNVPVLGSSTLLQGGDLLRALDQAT

Row | SMILES | IC50 [1] | IC50 [2]
1 | N#Cc1cc(F)cc(Oc2ccc3c(c2Cl)C(=O)C(F)(F)S3(=O)=O)c1 [3-(4-chloro-2,2-difluoro-1,1,3-trioxo-benzothiophen-5-yl)oxy-5-fluoro-benzonitrile] | 25 to 100 µM | –
2 | N#Cc1cccc(Oc2ccc3c(c2C(F)F)C(=O)C(F)(F)S3(=O)=O)c1 [3-[4-(difluoromethyl)-2,2-difluoro-1,1,3-trioxo-benzothiophen-5-yl]oxybenzonitrile] | 25 to 100 µM | –
3 | N#Cc1cc(F)cc(Oc2ccc3c(c2C#CCO)C(O)C(F)(F)S3(=O)=O)c1 (stereo not drawn) [3-[[2,2-difluoro-3-hydroxy-4-(3-hydroxyprop-1-ynyl)-1,1-dioxo-3H-benzothiophen-5-yl]oxy]-5-fluoro-benzonitrile] | > 100 µM | –
4 | N#Cc1cc(F)cc(Oc2ccc3c(c2C(F)F)C(NCC(F)F)CS3(=O)=O)c1 (stereo not drawn) [3-[[3-(2,2-difluoroethylamino)-4-(difluoromethyl)-1,1-dioxo-2,3-dihydrobenzothiophen-5-yl]oxy]-5-fluoro-benzonitrile] | > 100 µM | –
5 | N#CCNC1CS(=O)(=O)c2ccc(Oc3cc(F)cc(C#N)c3)c(C(F)F)c21 (stereo not drawn) [3-[[3-(cyanomethylamino)-4-(difluoromethyl)-1,1-dioxo-2,3-dihydrobenzothiophen-5-yl]oxy]-5-fluoro-benzonitrile] | > 100 µM | –
6 | CO/C(=C/C(F)F)c1c(Oc2cc(F)cc(C#N)c2)ccc2c1C(O)C(F)(F)S2(=O)=O (stereo not drawn) [3-[[4-[(E)-3,3-difluoro-1-methoxy-prop-1-enyl]-2,2-difluoro-3-hydroxy-1,1-dioxo-3H-benzothiophen-5-yl]oxy]-5-fluoro-benzonitrile] | 25 to 100 µM | –
7 | N#Cc1cc(F)cc(Oc2ccc3c(c2C(F)F)C(NCCC(=O)O)C(F)(F)S3(=O)=O)c1 (stereo not drawn) [3-[[5-(3-cyano-5-fluoro-phenoxy)-4-(difluoromethyl)-2,2-difluoro-1,1-dioxo-3H-benzothiophen-3-yl]amino]propanoic acid] | > 100 µM | –
8 | N#Cc1cc(F)cc(Oc2ccc3c(c2CF)C(O)CS3(=O)=O)c1 (stereo not drawn) [3-fluoro-5-[[4-(fluoromethyl)-3-hydroxy-1,1-dioxo-2,3-dihydrobenzothiophen-5-yl]oxy]benzonitrile] | 25 to 100 µM | –
9 | NC1c2c(ccc(OC3CCOCC3)c2C(F)F)S(=O)(=O)C1(F)F (stereo not drawn) [4-(difluoromethyl)-2,2-difluoro-1,1-dioxo-5-tetrahydropyran-4-yloxy-3H-benzothiophen-3-amine] | 25 to 100 µM | –
10 | O=C1CS(=O)(=O)c2ccc(Oc3ccc(F)c(F)c3)c(C(F)F)c21 [4-(difluoromethyl)-5-(3,4-difluorophenoxy)-1,1-dioxo-benzothiophen-3-one] | > 100 µM | –
11 | O=C1c2c(ccc(Oc3ccc(F)c(F)c3)c2C(F)F)S(=O)(=O)C1(F)F [4-(difluoromethyl)-5-(3,4-difluorophenoxy)-2,2-difluoro-1,1-dioxo-benzothiophen-3-one] | > 100 µM | –
12 | O=C1CS(=O)(=O)c2ccc(Oc3cc(F)cc(F)c3)c(Br)c21 [4-bromo-5-(3,5-difluorophenoxy)-1,1-dioxo-benzothiophen-3-one] | > 100 µM | –
13 | N=S1(=O)CC(=O)c2c1ccc(Oc1cc(F)cc(F)c1)c2Br (stereo not drawn) [4-bromo-5-(3,5-difluorophenoxy)-1-imino-1-oxo-benzothiophen-3-one] | > 100 µM | –
14 | O=S1(=O)c2ccc(Oc3cc(F)cc(Cl)c3)c(Br)c2C(O)C12CC2 (stereo not drawn) [4-bromo-5-(3-chloro-5-fluoro-phenoxy)-1,1-dioxo-spiro[3H-benzothiophene-2,1′-cyclopropane]-3-ol] | 25 to 100 µM | –
15 | N#Cc1c(Oc2cc(F)cc(F)c2)ccc2c1C(O)CS2(=N)=O (stereo not drawn) [5-(3,5-difluorophenoxy)-3-hydroxy-1-imino-2,3-dihydro-1H-1λ^4-benzo[b]thiophene-4-carbonitrile 1-oxide] | > 100 µM | –
16 | N#Cc1cc(Oc2ccc3c(c2C(F)F)C(=O)C(F)(F)S3(=O)=O)ccc1F [5-[4-(difluoromethyl)-2,2-difluoro-1,1,3-trioxo-benzothiophen-5-yl]oxy-2-fluoro-benzonitrile] | 25 to 100 µM | –
17 | N#Cc1cncc(Oc2ccc3c(c2C#N)[C@@H](O)CS3(=O)=O)c1 [5-[[(3R)-4-cyano-3-hydroxy-1,1-dioxo-2,3-dihydrobenzothiophen-5-yl]oxy]pyridine-3-carbonitrile] | 25 to 100 µM | –
18 | O=S1(=O)c2ccc(Oc3cc(F)cc(F)c3)c(Br)c2[C@@H](O)C1F (stereo partly drawn) [(3R)-4-bromo-5-(3,5-difluorophenoxy)-2-fluoro-1,1-dioxo-2,3-dihydrobenzothiophen-3-ol] | > 100 µM | –
19 | O=S1(=O)C[C@H](O)c2c1ccc(Oc1cncc(Cl)c1)c2Br [(3R)-4-bromo-5-[(5-chloro-3-pyridyl]oxy]-1,1-dioxo-2,3-dihydrobenzothiophen-3-ol] | > 100 µM | –

Results, then the compound that gave them:

Row | IC50 [1] | IC50 [2] | SMILES
20 | > 100 µM | – | O=S1(=O)C[C@H](O)c2c1ccc(Oc1cncc(F)c1)c2Br [(3R)-4-bromo-5-[(5-fluoro-3-pyridyl)oxy]-1,1-dioxo-2,3-dihydrobenzothiophen-3-ol]
21 | 25 to 100 µM | – | N#Cc1c(Oc2cncc(Cl)c2)ccc2c1[C@@H](O)CS2(=O)=O [(3R)-5-[(5-chloro-3-pyridyl)oxy]-3-hydroxy-1,1-dioxo-2,3-dihydrobenzothiophene-4-carbonitrile]
22 | 25 to 100 µM | – | N#Cc1c(Oc2cncc(F)c2)ccc2c1[C@@H](O)CS2(=O)=O [(3R)-5-[(5-fluoro-3-pyridyl)oxy]-3-hydroxy-1,1-dioxo-2,3-dihydrobenzothiophene-4-carbonitrile]
23 | – | 0.007 µM | N#Cc1cc(F)cc(Oc2ccc3c(c2Br)[C@@H](O)C(F)(F)S3(=O)=O)c1 [Compound 1, (R)-3-((4-bromo-2,2-difluoro-3-hydroxy-1,1-dioxido-2,3-dihydrobenzo[b]thiophen-5-yl)oxy)-5-fluorobenzonitrile]
24 | – | 0.047 µM | N#Cc1c(Oc2cc(F)cc(Cl)c2)ccc2c1[C@@H](O)CS2(=O)=O [Compound 2, (3R)-5-(3-Chloro-5-fluoro-phenoxy)-3-hydroxy-1,1-dioxo-2,3-dihydrobenzothiophene-4-carbonitrile]
25 | – | 4.41 µM | O=S1(=O)CCc2c1ccc(Oc1cc(F)cc(Cl)c1)c2Br [Compound 4, 4-Bromo-5-(3-chloro-5-fluorophenoxy)-2,3-dihydrobenzo[b]thiophene 1,1-dioxide]
26 | – | 4.86 µM | N#Cc1c(Oc2cc(F)cc(Cl)c2)ccc2c1CCS2(=O)=O [Compound 5, 5-(3-Chloro-5-fluorophenoxy)-2,3-dihydrobenzo[b]thiophene-4-carbonitrile 1,1-dioxide]
27 | – | 1.41 µM | O=C1c2c(ccc(Oc3cc(F)cc(Cl)c3)c2Br)S(=O)(=O)C1(F)F [Compound 8, 4-Bromo-5-(3-chloro-5-fluorophenoxy)-2,2-difluorobenzo[b]thiophen-3(2H)-one 1,1-dioxide]
28 | – | 1.54 µM | NC1c2c(ccc(Oc3cc(F)cc(F)c3)c2C(F)F)S(=O)(=O)C1F (stereo not drawn) [Compound 20, 3-amino-4-(difluoromethyl)-5-(3,5-difluorophenoxy)-2-fluoro-2,3-dihydrobenzo[b]thiophene 1,1-dioxide]
29 | – | 11.8 µM | NC1CS(=O)(=O)c2ccc(Oc3cc(F)cc(F)c3)c(C(F)F)c21 (stereo not drawn) [Compound 21]
30 | – | 5.84 µM | N#Cc1cc(F)cc(Oc2ccc3c(c2C(F)F)C(=N)C(F)S3(=O)=O)c1 (stereo not drawn) [Compound 27, 3-((4-(difluoromethyl)-2-fluoro-3-imino-1,1-dioxido-2,3-dihydrobenzo[b]thiophen-5-yl)oxy)-5-fluorobenzonitrile]
